Experimental data: patent US20080009470A1, “Acremonic Acid Derivatives” (priority 2003, published 2008)
Where “and” joins values, the source holds several entries; their conditions need not be identical. Equal values may be shown once.

What was measured:
[1] = test system: methicillin-resistant S. aureus (MRSA) strains; assay: MIC, Agar Dilution / Micro Dilution Test (NCCLS); type: cell-based, Staphylococcus aureus; conditions: e.g. in the form of its sodium salt
From the text: E.g., the compounds of the present invention show antimicrobial, e.g. antibacterial activity against gram positive bacteria and gram negative, such as Staphylococcus, e.g. S. aureus, MRSA (Methicillin Resistant S. aureus), MSSA (Methicillin Sensitive S. aureus), Enterococcus, e.g. E. faecalis, E. faecium, Moraxella, e.g. M. catarrhalis, in vitro in the Agar Dilution Test and/or Micro Dilution Test for bacteria according to National Committee for Clinical Laboratory Standards (NCCLS) 1993, • Document M7-A4, Vol. 20, No. 2, 2000: “Methods for dilution Antimicrobial Susceptibility Tests for Bacteria that Grow Aerobically”—Third Edition, Approved Standard”; and • Document M26-A, Vo. 19, No. 18, 1999: Methods for determining antibactericidal activity of antimicrobial agents, • Document M11-A3 for anaerobic bacteria, • in a concentration from about 0.1 to ca. 25.6 μg/ml, e.g. using strains including Staphylococcus aureus (ATCC 29213 and ATCC 29506); Enterococcus faecalis ATCC 29212; • and in vivo in the septicaemia mouse model, in accordance to the method description Nr. […]
The compound of example 1 is a preferred compound of the present invention. It has, for example been determined that the minimum inhibitory concentration, e.g. MIC90 (μg/ml), of the compound of Example 1, e.g. in the form of its sodium salt, against, for example S. aureus (MRSA) is of about 0.2.

[2] = test system: mupirocin-resistant staphylococci; assay: MIC, Agar Dilution / Micro Dilution Test (NCCLS); type: cell-based; conditions: n=26
From the text: (§1) E.g., the compounds of the present invention show antimicrobial, e.g. antibacterial activity against gram positive bacteria and gram negative, such as Staphylococcus, e.g. S. aureus, MRSA (Methicillin Resistant S. aureus), MSSA (Methicillin Sensitive S. aureus), Enterococcus, e.g. E. faecalis, E. faecium, Moraxella, e.g. M. catarrhalis, in vitro in the Agar Dilution Test and/or Micro Dilution Test for bacteria according to National Committee for Clinical Laboratory Standards (NCCLS) 1993, • Document M7-A4, Vol. 20, No. 2, 2000: “Methods for dilution Antimicrobial Susceptibility Tests for Bacteria that Grow Aerobically”—Third Edition, Approved Standard”; and • Document M26-A, Vo. 19, No. 18, 1999: Methods for determining antibactericidal activity of antimicrobial agents, • Document M11-A3 for anaerobic bacteria, • in a concentration from about 0.1 to ca. 25.6 μg/ml, e.g. using strains including Staphylococcus aureus (ATCC 29213 and ATCC 29506); Enterococcus faecalis ATCC 29212; • and in vivo in the septicaemia mouse model, in accordance to the method description Nr. 159 A-5, approved by Austrian Health Authorities (MA 58, no. 2968/95 of Oct. 12, 1995), e.g. when administered at dosages from 0.05 to 50 mg/kg body weight.
(§2) Furthermore, the compound of example 1 is active against mupirocin-resistant staphylococci (n=26) with MICs below 0.5 μg/ml (range ≦0.125-0.5 μg/ml). Moraxella catarrhalis isolates (n=2) are inhibited at MICs of 0.2 and 0.4 μg/ml. The MICs for Enterococcus faecalis isolates (n=2) are 6.4 μg/ml and 12.8 μg/ml.

Enterococcus faecium = assay: MIC, Agar Dilution / Micro Dilution Test (NCCLS); type: cell-based; conditions: n=1
From the text: as §1, §2

[3] = test system: methicillin-sensitive Staphylococcus aureus (MSSA) strains; assay: MIC, Agar Dilution / Micro Dilution Test (NCCLS); type: cell-based; conditions: n=26, e.g. in the form of its sodium salt
From the text: as §1, §2

[4] = test system: Moraxella catarrhalis isolates; assay: MIC, Agar Dilution / Micro Dilution Test (NCCLS); type: cell-based; conditions: n=2
From the text: as §1, §2

[5] = test system: Enterococcus faecalis isolates; assay: MIC, Agar Dilution / Micro Dilution Test (NCCLS); type: cell-based; conditions: n=2
From the text: as §1, §2

[6] = test system: S. aureus B29 (clinical isolate, MRSA); assay: septicaemia mouse model; type: in vivo; conditions: mice, survival on day 5, Probit analysis, e.g. sodium salt
From the text: as §1
(§3) The ED50 values are calculated by Probit analysis of the administered dosages of compounds. Activity is determined by numbers of surviving animals per group of 8 or 6 mice, respectively, per dosage unit on day 5 after infection.

[7] = test system: Staphylococcus aureus (ATCC 49951, MSSA); assay: septicaemia mouse model; type: in vivo; conditions: mice, treated orally 1 and 4 hours after infection; survival on day 5; Probit analysis; e.g. sodium salt; ranging from 5.54 to 13.34
From the text: as §1, §3

Substance: 6-O-(2′-fluoroisobutyryl)-24, 25-dihydro-acremonic acid [Example 1]
- MIC50 ([1]; MRSA strains, n=26): 0.2 µg/mL
- MIC90 ([1]; S. aureus (MRSA)): about 0.2 μg/ml
- MIC range [2]: 0.125 to 0.5 µg/mL
- MICs [2]: below 0.5 μg/ml
- MIC (Enterococcus faecium): 6.4 µg/mL
- MIC90 [3]: 0.25 µg/mL
- MICs [4]: 0.2 µg/mL and 0.4 µg/mL
- MICs [5]: 6.4 µg/mL and 12.8 µg/mL
- ED50 ([6]; treated orally 1 and 4 hours after infection, ranging from 4.25 to 11.98): ca. 6.65 mg/kg body weight
- ED50 ([6]; treated subcutaneously 1 and 4 hours after infection, ranging from 1.93 to 5.85): ca. 3.20 mg/kg body weight
- ED50 [7]: ca. 8.55 mg/kg body weight
